Reference: patent US5783568A, “Methods for treating cancer and other cell proliferative diseases” (Sugen, Inc., priority 1994, dated 1998)
“Also recorded” adds a separate entry of the source.

Legend:
FGFR2 (bek) [1] = test: Tyrosine phosphorylation of FGFR2 in wild-type CHO-K1 cells; format: cell-based, human; conditions: 0.1 nM aFGF alone, 5 min at 37° C.
Protocol: (§1) Cells were lysed and the receptor was immunoprecipitated with anti-FGFR2 antibodies. Samples were then analyzed by SDS-PAGE, transferred to nitrocellulose membranes, and tyrosine-phosphorylated proteins were detected by immunoblotting with anti-phosphotyrosine antibodies.
(§2) Wild-type CHO cells (CHO-K1), as well as heparin sulfate-deficient mutant cells (CHO-pgsD-677) which were kindly provided by Prof. J. Esko (Esko, 1991), were cultured in F-12 medium containing 7.5% FBS, 1% Ampicillin/Streptomycin and 1% glutamine. Both CHO cell lines were co-transfected with the wild-type human FGFR2 (bek) DNA in the expression vector pMJ30 (Dionne et al., 1990) (40 μg/10 cm dish) and the pSVneo resistant gene (0.5 mg/10 cm dish), using the calcium phosphate method (Chen and Okayama, 1987). Geneticin (1 mg/ml) resistant clones were screened for expression of the receptor by immunoprecipitation and immunoblotting analysis using anti-FGFR2 antibodies.
(§3) Wild-type and mutant CHO cells were starved overnight in F-12 medium containing 0.5% FBS, and stimulated with either 0.1 nM aFGF, 50 nM heparin, or both, for 5 min at 37° C. Cells were lysed, immunoprecipitated with anti-FGFR2 antibodies and analyzed by immunoblotting with anti-phosphotyrosine (anti-PTyr) antibodies.

FGFR2 (bek) [2] = test: Cross-linking (BS^3) of FGF receptors in CHO-K1 cells, receptor dimerization; format: cell-based, human; conditions: 0.1 nM aFGF, with or without 50 nM heparin
Protocol: Parental (lanes 1-4) and mutant CHO cells (lanes 5-8) were incubated with either 50 nM heparin (lanes 2 and 6), 0.1 nM aFGF (lanes 3 and 7), or both (lanes 4 and 8), for 1 hour at 4° C. Cells were then treated with the covalent cross-linking agent BS^3 for […] at room temperature, solubilized and immunoprecipitated with anti-FGFR2 antibodies. The samples were analyzed by a gradient SDS gel (6-8%), transferred to nitrocellulose membranes and probed with anti-FGFR2 antibodies. M--FGFR monomers; D--FGFR dimers.
Cells grown in fibronectin-coated dishes were starved overnight in F-12 medium containing 0.5% FBS. Cells were then washed with ice-cold binding medium (F-12 medium containing 20 mM Hepes (pH 7.5) and 0.1% BSA), and incubated for 1 hour at 4° C. with either aFGF (0.1 nM), heparin (50 nM), or both. The cells were then washed twice with cold PBS and incubated with 1 mM BS^3 in PBS for 20 minutes at room temperature. The cross-linking reaction was quenched by the addition of 50 mM Tris-HCl and 100 mM glycine for 10 min at room temperature. […]
Full-length FGFR2 was transfected into two CHO cell lines; wild-type CHO-K1, and the mutant CHO-pgsD-677, which is defective in heparin sulfate expression at its cell-surface (Esko, 1991). […] Cells were then lysed, and immunoprecipitated FGFR2 was analyzed by SDS-PAGE followed by immunoblotting with anti-FGFR2 antibodies.

FGFR1 (flg) = FGFR1 (flg) expressed in the two CHO cell lines; format: cell-based
[3] = tested on: sFGFR (soluble extracellular domain of FGFR2); test: Binding of sFGFR to a heparin-sepharose column; design: species or system human
[4] = tested on: sFGFR (soluble extracellular domain of FGFR2); test: Isothermal titration calorimetry, heparin binding to sFGFR; design: species or system human; conditions: ITC
FGFR2 (bek) [5] = test: Tyrosine phosphorylation of FGFR2 in mutant (HSPG-deficient) CHO-pgsD-677 cells; format: cell-based, human; conditions: 0.1 nM aFGF, 50 nM heparin, 5 min at 37° C.
Protocol: as §1, §2, §3

[6] = tested on: vascular endothelial cells; conditions: cited from earlier work
[7] = tested on: FGFR1 extracellular domain; conditions: Kan et al., 1993; cited from earlier work

binding of sFGFR to heparin-sepharose column [3]	Substance	FGFR2 autophosphorylation in CHO-K1 cells (FGFR2 (bek) [1])	receptor dimerization in CHO-K1 cells (FGFR2 (bek) [2])	dimerization and autophosphorylation with FGFR1 (flg) (FGFR1 (flg))	heparin binding to sFGFR [4]	FGFR2 autophosphorylation in mutant (heparin-deficient) CHO cells (FGFR2 (bek) [5])	mitogenic effect of aFGF on vascular endothelial cells [6]	binding to the extracellular domain of FGFR1 [7]
–	aFGF: aFGF was expressed in E. coli and purified by binding to a heparin-sepharose column	stimulation of FGFR2 autophosphorylation	could induce receptor dimerization regardless of the presence of exogenous heparin	Identical results	–	–	–	–
could not be detected	heparin	–	–	–	failed to detect an interaction with significant affinity; also recorded: could not be detected; also recorded: does not itself interact with sFGFR	required for significant levels of aFGF-induced FGFR2 autophosphorylation; also recorded: the addition of heparin is required for aFGF to activate FGFR	potentiates the mitogenic effect of aFGF on vascular endothelial cells	binds to the extracellular domain of FGFR1
